Data published in patent US20170067909A1, “ASSAY-READY RECOMBINANT CELLS TRANSIENTLY OVEREXPRESSING GENES ENCODING DRUG TRANSPORTER PROTEINS AND/OR DRUG METABOLIZING ENZYMES” (Corning Incorporated, priority 2012, published 2017).
Changes are numbered by the printed parent chain. Read-outs that look alike come from different tables or passages of the source.

Legend:
OATP1B1 = target: T1, OATP1B1 (Homo sapiens, UniProt Q9Y6L6)
T1 sequence (Q9Y6L6 1-691): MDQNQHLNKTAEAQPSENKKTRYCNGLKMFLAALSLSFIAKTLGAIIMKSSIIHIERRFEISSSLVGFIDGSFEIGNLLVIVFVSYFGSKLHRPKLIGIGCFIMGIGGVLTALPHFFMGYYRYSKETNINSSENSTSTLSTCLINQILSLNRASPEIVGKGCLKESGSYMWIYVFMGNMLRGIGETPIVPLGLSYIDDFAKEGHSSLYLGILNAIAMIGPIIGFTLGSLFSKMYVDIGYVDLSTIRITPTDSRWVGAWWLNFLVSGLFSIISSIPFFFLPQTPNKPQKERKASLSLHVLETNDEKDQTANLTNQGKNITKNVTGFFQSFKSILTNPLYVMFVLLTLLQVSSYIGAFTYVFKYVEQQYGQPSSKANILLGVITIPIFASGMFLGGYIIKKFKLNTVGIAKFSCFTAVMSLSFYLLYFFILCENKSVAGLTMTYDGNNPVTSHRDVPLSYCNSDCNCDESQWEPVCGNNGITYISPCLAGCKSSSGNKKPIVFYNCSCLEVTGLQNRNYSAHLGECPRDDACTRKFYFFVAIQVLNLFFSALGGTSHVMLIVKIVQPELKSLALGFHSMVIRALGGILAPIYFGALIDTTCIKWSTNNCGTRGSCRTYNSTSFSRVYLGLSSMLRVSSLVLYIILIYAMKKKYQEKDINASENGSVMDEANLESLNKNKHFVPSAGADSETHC

OATP1B1*15 = target: T2, OATP1B1*15 (Homo sapiens, UniProt Q9Y6L6, N130D/V174A); assay: OATP1B1 single nucleotide polymorphism panel uptake assay, OATP1B1*15 HEK-293 cells
T2 sequence (Q9Y6L6 1-691 N130D/V174A): T1 sequence (Q9Y6L6 1-691) with N130D, V174A

Compound: C[C@]12CC[C@@H]3c4ccc(O)cc4CC[C@H]3[C@@H]1CC[C@@H]2O[C@@H]1O[C@H](C(=O)O)[C@@H](O)[C@H](O)[C@H]1O [E17βG]
- UPTAKE ACTIVITY pOATP1B1 (OATP1B1; 293-F cells, 0.2 × 10^6 cells/well, after thaw from cryopreservation): 20.2 pmol/mg/min
- UPTAKE ACTIVITY pOATP1B1 (OATP1B1; 293-F in CD293, cryo, 24 hr post plating, 0.4×10^6 cells/well): 27.4 pmol/mg/min
- UPTAKE ACTIVITY pOATP1B1 (OATP1B1; 293-F in CD293, cryo, 72 hr post plating, 0.4×10^6 cells/well): 9.9 pmol/mg/min
- UPTAKE ACTIVITY pOATP1B1 (OATP1B1; 293-F in CD293, fresh, 48 hr post plating, 0.4×10^6 cells/well): 15.4 (85%) pmol/mg/min
- UPTAKE ACTIVITY pOATP1B1 (OATP1B1; FS293 cells, 0.2 × 10^6 cells/well, after thaw from cryopreservation): 10.5 pmol/mg/min
- UPTAKE ACTIVITY pOATP1B1 (OATP1B1; FS293 in Excell, cryo, 24 hr post plating, 0.4×10^6 cells/well): 36.4 pmol/mg/min
- UPTAKE ACTIVITY pOATP1B1 (OATP1B1; FS293 in Excell, cryo, 48 hr post plating, 0.4×10^6 cells/well): 10.0 pmol/mg/min
- UPTAKE ACTIVITY pOATP1B1 (OATP1B1; FS293 in Excell, cryo, 72 hr post plating, 0.4×10^6 cells/well): 6.6 pmol/mg/min
- Uptake Activity (OATP1B1; recovery time prior to cryopreservation 24 HOURS): 0.59 pmol/mg/min
- Uptake Activity (OATP1B1; recovery time prior to cryopreservation 30 MIN): 5.78 pmol/mg/min
- Km (dog Oatp1b4): 12.2 ± 0.6 µM
- uptake of substrate (in words) (dog Oatp1b4; HEK-293 cells overexpressing the transporter): significant uptake
- uptake activity / transport compared to OATP1B1*1a cells (in words) (OATP1B1*15): Significantly impaired transport

Compound: fluorescein methotrexate [FMTX]
- uptake activity / transport compared to OATP1B1*1a cells (in words) (OATP1B1*15): Significantly impaired transport
